Reference: PMC3274447, “Fermentation, Isolation, Structure, and antidiabetic activity of NFAT-133 produced by Streptomyces strain PM0324667” (AMB Express, 2011)
“And” between values parts separate entries of the source, which are not always exact repeats. Identical values can stand only once. Like-named read-outs stand apart in the source and are kept apart here.

Experiments:
[1] = test system: transcription factor - NFAT; design: method as in Burres et al.1995; conditions: Jurkat T-cells; ref Burres et al.1995; cited from earlier work
[2] = Pharmacokinetic profile in female db/db mice; assay type: in vivo; conditions: for AUC(0-t) / Cmax / Tmax / half-life / AUC(0-inf): mouse, plasma; for AUC(0-inf): read-out: AUC 0-infinity
Excerpt: Similarly, troglitazone a PPAR-γ […] agonist increases glucose uptake by inducing GLUT4 translocation in L6 skeletal muscles ([Lessard et al. 2006]; [Yonemitsu et al. 2001]). However, these compounds are PPAR-γ agonists, and have several side-effects that cause increased body weight and hepaptoxicity on chronic exposure. […] Prior to planning an efficacy study we determined the pharmacokinetic profile of NFAT-133 (Figure 5, Table 4) using female db/db mice with n = 4 per time point. […] But, since the compound appeared to have a novel mechanism of action, we decided to explore its in vivo efficacy potential by attempting the intraperitoneal route of administration. NFAT-133 administered by the intraperitoneal route achieved plasma concentrations higher than the in vitro EC50 in skeletal muscles.
Figure 5 Pharmacokinetic data of NFAT-133 by oral (A) and intraperitoneal (B) absorption in female db/db mice at 30 mg/kg.

human PPAR-γ = molecular target: T1, human PPAR-γ (Homo sapiens, UniProt P37231); assay: PPAR-γ luciferase assay in transfected CV1 cells; assay type: cell-based; conditions: for % hPPAR-γ activation: relative to 1 μM rosiglitazone = 100%, n = 3
T1 construct: expressed in transfected cells; host or cells: CV1 cells, transient transfection with lipofectamine
T1 sequence (P37231 1-505): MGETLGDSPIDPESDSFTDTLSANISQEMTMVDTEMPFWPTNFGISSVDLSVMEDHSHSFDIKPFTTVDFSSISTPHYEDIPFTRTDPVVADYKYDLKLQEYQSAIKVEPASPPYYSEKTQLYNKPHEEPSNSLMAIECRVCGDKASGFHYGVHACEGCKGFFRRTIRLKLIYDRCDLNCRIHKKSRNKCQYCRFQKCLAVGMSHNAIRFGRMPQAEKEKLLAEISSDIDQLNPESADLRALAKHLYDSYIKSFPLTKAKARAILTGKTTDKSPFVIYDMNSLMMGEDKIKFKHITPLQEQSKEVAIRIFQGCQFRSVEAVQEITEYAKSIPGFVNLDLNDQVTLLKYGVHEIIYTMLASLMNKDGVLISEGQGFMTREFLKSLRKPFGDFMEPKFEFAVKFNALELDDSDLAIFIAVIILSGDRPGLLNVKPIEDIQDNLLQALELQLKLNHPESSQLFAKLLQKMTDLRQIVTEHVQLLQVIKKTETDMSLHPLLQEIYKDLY
Procedure: PPAR-γ activation is one of the key mechanisms involved in glucose uptake. […] CV1 cells were seeded onto 24 well plates and transient transfections were conducted after over-night incubation using lipofectamine (Invitrogen, CA, USA). Five hours after transfection, the cells were treated with each compound concentration for an additional 24 h, and the luciferase assay (Promega) was performed according to the manufacture's protocol. Luminescence was measured using the Safire2 reader. […] The entire assay was performed in triplicates.

[3] = test system: splenocytes derived from Balb/c and C57BL/6 mice; design: method as in Burres et al.1995; conditions: splenocytes from Balb/c and C57BL/6 mice in vitro; ref Burres et al.1995; cited from earlier work
db/db mice = assay: In vivo activity in male db/db mice, 10 days b.i.d.
Procedure: Male db/db mice (7-9 weeks of age) were housed in individually ventilated cages at room temperature of 22°C ± 2°C, humidity at 55 ± 5%, with a 12:12-h light: dark cycle and throughout the study period had access to water and standard chow ad libitum. The guidelines of the Committee for the Purpose of Control and Supervision of Experiments on Animals, Government of India, were followed and the in-house animal ethics committee approved all experimental procedures.
Male db/db mice were divided into three groups of 10 animals each with similar body weight and plasma glucose (mean ± S.E.M.) levels. […] Body weight was measured daily. On day 10, one hour after the last dose, mice were fasted for four hours so as to minimize the variability between the animals. Blood was collected from the fasted mice, plasma was separated by centrifugation (6000 g at 4°C for 7 minutes) and glucose was estimated using a biochemistry auto analyzer (Hitachi Science Systems Limited, Ibaraki, Japan). A small aliquot of separated plasma was stored at -20°C for estimation of insulin using an ELISA assay kit (Linco Research). Immediately after blood sample collection, mice were sacrificed, livers excised and weighed. The data was reproducible in two independent experiments.
All the results are expressed as Mean ± S.E.M. Statistical analysis was done using GraphPad Prism 4 (version 4.03, GraphPad Software, Inc., CA, USA). For comparison between means of more than two groups one-way analysis of variance (ANOVA) followed by Dunnett's post-hoc analysis was employed.

[4] = test system: L6 rat skeletal muscle cells; assay: Glucose uptake (14C-2-deoxyglucose) in insulin-sensitized differentiated L6 myotubes; assay type: cell-based; conditions: for EC50: Rattus norvegicus, differentiated L6 myotubes in presence of insulin
Procedure: The metabolite extract library samples were screened for the ability to induce glucose uptake in insulin stimulated differentiated L6 myotubes. The L6 rat skeletal muscle cells were seeded into 96 well cell culture plates in complete medium (α-MEM + 10% fetal bovine serum + 1% penicillin-streptomycin solution) and maintained at 5% carbon dioxide (CO2) atmosphere. After 48 h, the medium was switched to α-MEM with 2% (v/v) fetal bovine serum (FBS) in order to initiate differentiation. Media change was ensured every 48 h. Compound treatment was conducted once the myoblasts differentiated to form myotubes. The differentiated and fused myotubes were starved in serum free α-MEM for 4 h, treated with samples and further incubated for 24 h. Following treatment and incubation, the cells were sensitized with insulin (200 nM) and incubated for 25 minutes. Radioactive glucose pulsing was done at 0.06 μCi/ml for 10 minutes. The reaction was terminated with cold KRPH buffer. The cell-associated radioactivity was determined by lysing the cells with Microscint PS™ followed by liquid scintillation counting ([Huang et al. 2002]). The assay was performed in triplicate.
For all experiments, the L6 myoblasts obtained from ATCC were used only up to passage seven and were utilized within two months post revival of a new vial.

[5] = 100 mg/kg i.p. b.i.d. 10 days, P < 0.001 vs. vehicle

In the case of `CC(=O)C(C)C(O)C(C)c1ccc(C)cc1/C=C\CO` (stereo not shown) [NFAT-133], the “activation of the transcription factor NFAT” value [1] is listed as “inhibit the activation”, the “oral bioavailability” value [2] is listed as “poor oral bioavailability” and the AUC(0-t) ([2]; 30 mg/kg IP) is listed as 3220 ng·h/mL. For the same molecule, the Cmax ([2]; 30 mg/kg IP) was 11700 ng/mL and 42.2 µM, the Tmax ([2]; 30 mg/kg IP) was 4.8 min and the half-life ([2]; 30 mg/kg IP) was 112 min. The AUC(0-inf) ([2]; 30 mg/kg IP) was 3550 ng·h/mL, the AUC(0-t) ([2]; 30 mg/kg oral) was 630 ng·h/mL and the Cmax ([2]; 30 mg/kg oral) was 3410 ng/mL and 12.3 µM. The Tmax ([2]; 30 mg/kg oral) was 4.8 min, the half-life ([2]; 30 mg/kg oral) was 9.6 min and the AUC(0-inf) ([2]; 30 mg/kg oral) was 650 ng·h/mL. The “% hPPAR-γ activation” value (human PPAR-γ; 30 μM) was 0.2%, the “% hPPAR-γ activation” value (human PPAR-γ; 100 μM) was 9.0% and the “PPAR-γ activity” value (human PPAR-γ; concentrations as high as 100 μM) was “does not induce PPAR-γ activity”. For the same molecule, the proliferation of splenocytes [3] was “block proliferation”, the “plasma glucose levels as compared to vehicle treated animals” value (db/db mice; [5]) was “significant reduction” and the “plasma insulin levels as compared to vehicle treated animals” value (db/db mice; [5]) was “significant reduction”. The liver weight (db/db mice; 100 mg/kg ip b.i.d. 10 days) was 2.0 ± 0.1 g, the “% Change in body weight” value (db/db mice; 100 mg/kg ip b.i.d. 10 days, Mean ± S.E.M., n = 10) was -1.08 ± 1.21% and -1.1 ± 1.2 % and the liver weight (db/db mice; 100 mg/kg ip b.i.d. 10 days, Mean ± S.E.M., n = 10, the values are: liver weight) was 2 ± 0.1 g. For the same molecule, the EC50 [4] was 6.3 ± 1.8 µM.
For `CN(CCOc1ccc(CC2SC(=O)NC2=O)cc1)c1ccccn1` (stereo not shown) [Rosiglitazone, rosiglitazone, reference compound], the liver weight (db/db mice; 5 mg/kg po b.i.d. 10 days) was 2.7 ± 0.1 g, the “% Change in body weight” value (db/db mice; 5 mg/kg po b.i.d. 10 days, Mean ± S.E.M., n = 10) was 14.6 ± 0.8 % and the “% Change in body weight” value (db/db mice; 5 mg/kg po b.i.d. 10 days, Mean ± S.E.M., n = 10, listed as rosiglitazone) was 14.63 ± 0.85%. For the same molecule, the liver weight (db/db mice; 5 mg/kg po b.i.d. 10 days, Mean ± S.E.M., n = 10, the values are: liver weight) was 2.6 ± 0.1 g, the “Inference (glucose uptake activity)” value ([4]; 4 μg/ml) was “Active” and the EC50 [4] was 6.9 ± 1.8 µM.
